Values after ≈ are worked out from the molar mass of the structure shown.
Columns and labels:
Oryctolagus cuniculus = organism: Oryctolagus cuniculus; assay: Evaluated in vitro for the inhibition of KCl-induced contraction of isolated rabbit aorta rings.; type: functional
Canis familiaris = assay: In vivo antihypertensive activity against anaesthetized dogs after intravenous administration of specified threshold dose; type: functional, Canis lupus familiaris

SMILES	IC50 (Oryctolagus cuniculus)	Dose (Canis familiaris)
COC(=O)C1=C(C)NC(C)=C(C(=O)OC)C1c1ccccc1	0.04 µg/mL (≈ 0.133 µM)	0.05 mg/kg
CCC1(c2ccccc2)C(C(=O)OC)=C(C)N=C(C)/C1=C(/O)OC (stereo unspecified)	3.6 µg/mL (≈ 10.9 µM)	–
COC(=O)C1=C(C)N=C(C)/C(=C(/O)OC)C1(C)c1cccc([N+](=O)[O-])c1 (stereo unspecified)	2.3 µg/mL (≈ 6.38 µM)	0.3 mg/kg
COC(=O)C1=C(C)N=C(C)/C(=C(/O)OC)C1(C)c1ccccc1 (stereo unspecified)	1.2 µg/mL (≈ 3.81 µM)	3 mg/kg
CCOC(=O)C1=C(C)N=C(C)/C(=C(/O)OCC)C1(C)c1cccnc1 (stereo unspecified)	9 µg/mL (≈ 26.1 µM)	3 mg/kg
CCOC(=O)C1=C(C)N=C(C)/C(=C(/O)OCC)C1c1cccnc1 (stereo unspecified)	0.5 µg/mL (≈ 1.51 µM)	0.3 mg/kg

— ChEMBL document CHEMBL1124767, “Synthesis, pharmacological effects, and conformation of 4,4-disubstituted 1,4-dihydropyridines” (J Med Chem, 1990)
